Reference: PMC11232110 (RSC Advances, 2024)

Molecular target: enoyl acyl carrier protein reductase (InhA) (Mycobacterium tuberculosis, UniProt P9WGR1)
Test: InhA enzyme inhibition assay
Type: biochemical

enoyl acyl carrier protein reductase (InhA), sequence (P9WGR1 whole entry, looked up): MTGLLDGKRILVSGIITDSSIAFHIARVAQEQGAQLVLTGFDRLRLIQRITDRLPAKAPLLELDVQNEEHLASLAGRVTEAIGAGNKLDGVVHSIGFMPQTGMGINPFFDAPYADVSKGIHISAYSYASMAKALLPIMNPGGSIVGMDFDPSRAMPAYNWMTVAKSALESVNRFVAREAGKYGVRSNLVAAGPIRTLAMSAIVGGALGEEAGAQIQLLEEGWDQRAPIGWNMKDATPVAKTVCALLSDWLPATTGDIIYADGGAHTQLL

## O=c1cc(-c2ccccc2)c2cc(Cl)c(OCc3nnn(CCN4CCOCC4)n3)cc2o1 [4c, 7-((2-(2-Morpholinoethyl)-2H-tetrazol-5-yl)methoxy)-6-chloro-4-phenyl-2H-chromen-2-one]
  IC50: 565 ± 20 nM
